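Cells were grown in 96-well plates and exposed to each compound for 48 hours at five concentrations; endpoints were interpolated linearly between bracketing concentrations, or set to the highest concentration if not reached. At the GI50, growth is halved.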 Activity calls are given as the source filed them. Rule as the data show it: active = GI50 up to about 1.1 µM and inactive = higher.
Legend:
Test in all cases: growth of human tumour cells (NCI), 48 h
MDA-MB-231 = tested on: MDA-MB-231
NCI-H460 = tested on: NCI-H460
MDA-MB-435 = tested on: MDA-MB-435
RXF 393 = tested on: RXF 393
SN12C = tested on: SN12C
K562 = tested on: K562
SK-MEL-5 = tested on: SK-MEL-5
UACC-257 = tested on: UACC-257
ACHN = tested on: ACHN
U-251 = tested on: U-251
Malme-3M = tested on: Malme-3M
A498 = tested on: A498
NCI-H23 = tested on: NCI-H23
UACC-62 = tested on: UACC-62
OVCAR-4 = tested on: OVCAR-4
EKVX = tested on: EKVX
SNB-19 = tested on: SNB-19
SK-MEL-28 = tested on: SK-MEL-28
MCF7 = tested on: MCF7
HL-60 = tested on: HL-60

Measured: GI50

O=C1c2ccccc2C(=O)c2c(Nc3ccc4c5c(cccc35)C(=O)c3ccccc3-4)cccc21
inactive: MDA-MB-231 > 100 µM | NCI-H460 > 100 µM | MDA-MB-435 > 100 µM | RXF 393 > 100 µM | SN12C > 100 µM | K562 > 100 µM | SK-MEL-5 > 100 µM | UACC-257 > 100 µM | ACHN > 100 µM | U-251 > 100 µM | Malme-3M > 100 µM | A498 > 100 µM | NCI-H23 > 100 µM | UACC-62 > 100 µM | OVCAR-4 > 100 µM | EKVX > 100 µM | SNB-19 > 100 µM

COc1cc([C@H]2CC(=O)C[C@H](c3cc(OC)c(OC)c(OC)c3)C23C(=O)c2ccccc2C3=O)cc(OC)c1OC
inactive: MDA-MB-231 56.9 µM | NCI-H460 91.2 µM | MDA-MB-435 > 100 µM | RXF 393 32.5 µM | SN12C > 100 µM | K562 44.2 µM | SK-MEL-5 > 100 µM | UACC-257 > 100 µM | ACHN 59.4 µM | U-251 41.3 µM | Malme-3M > 100 µM | NCI-H23 > 100 µM | UACC-62 43.1 µM | EKVX > 100 µM | SNB-19 > 100 µM | SK-MEL-28 > 100 µM | MCF7 71.3 µM

OCCCCCNc1ccnc2cc(Cl)ccc12
inactive: NCI-H460 69.3 µM | RXF 393 > 100 µM | SN12C > 100 µM | K562 21.9 µM | SK-MEL-5 53.5 µM | UACC-257 > 100 µM | ACHN > 100 µM | U-251 > 100 µM | Malme-3M > 100 µM | HL-60 22 µM | A498 > 100 µM | NCI-H23 > 100 µM | UACC-62 > 100 µM | OVCAR-4 > 100 µM | EKVX 86.3 µM | SNB-19 > 100 µM | SK-MEL-28 > 100 µM

COc1cc(Nc2nc3cc(C(F)(F)F)ccc3nc2-c2ccccc2)cc(OC)c1OC
inactive: NCI-H460 > 100 µM | RXF 393 18.1 µM | SN12C > 100 µM | K562 > 100 µM | SK-MEL-5 34.4 µM | UACC-257 73.6 µM | ACHN 65.5 µM | U-251 57.4 µM | Malme-3M > 100 µM | HL-60 39.3 µM | A498 > 100 µM | NCI-H23 > 100 µM | UACC-62 75.2 µM | OVCAR-4 5.82 µM | EKVX 24.3 µM | SK-MEL-28 49.7 µM

C#CCN(N=O)C(=O)NC(CCCNC(=O)OCc1ccccc1)C(=O)OCc1ccccc1 (stereo unspecified)
inactive: NCI-H460 > 100 µM | RXF 393 22.6 µM | SN12C > 100 µM | K562 61.9 µM | SK-MEL-5 > 100 µM | UACC-257 77.1 µM | ACHN > 100 µM | U-251 > 100 µM | Malme-3M > 100 µM | HL-60 20.1 µM | A498 > 100 µM | NCI-H23 > 100 µM | UACC-62 > 100 µM | OVCAR-4 > 100 µM | EKVX > 100 µM | SNB-19 > 100 µM | SK-MEL-28 24.9 µM

CC(=O)OCC1OC(n2c(C)c(C)cc(C#N)c2=S)C(OC(C)=O)C(OC(C)=O)C1OC(C)=O (stereo unspecified)
inactive: MDA-MB-231 > 100 µM | NCI-H460 > 100 µM | RXF 393 > 100 µM | SN12C > 100 µM | K562 > 100 µM | SK-MEL-5 > 100 µM | UACC-257 > 100 µM | ACHN > 100 µM | U-251 > 100 µM | Malme-3M > 100 µM | HL-60 > 100 µM | A498 > 100 µM | NCI-H23 > 100 µM | UACC-62 65.2 µM | OVCAR-4 > 100 µM | EKVX > 100 µM | SNB-19 > 100 µM | SK-MEL-28 > 100 µM | MCF7 > 100 µM

CCN1C(=O)/C(=C\c2coc3ccccc3c2=O)SC1=S
inactive: NCI-H460 > 100 µM | RXF 393 36.5 µM | SN12C > 100 µM | K562 > 100 µM | SK-MEL-5 > 100 µM | UACC-257 > 100 µM | ACHN > 100 µM | U-251 28.3 µM | Malme-3M > 100 µM | HL-60 > 100 µM | A498 > 100 µM | NCI-H23 58.9 µM | UACC-62 68.7 µM | OVCAR-4 > 100 µM | EKVX > 100 µM | SNB-19 > 100 µM | SK-MEL-28 > 100 µM

CN(C)CC1CCCC/C1=N/OC(=O)c1ccc(Cl)c(Cl)c1 (stereo unspecified)
inactive: NCI-H460 > 100 µM | RXF 393 > 100 µM | SN12C > 100 µM | K562 > 100 µM | SK-MEL-5 > 100 µM | UACC-257 > 100 µM | ACHN > 100 µM | U-251 > 100 µM | Malme-3M > 100 µM | HL-60 > 100 µM | A498 > 100 µM | NCI-H23 > 100 µM | UACC-62 > 100 µM | OVCAR-4 > 100 µM | EKVX > 100 µM | SK-MEL-28 > 100 µM

CCCCCCCCCCCCCCCCc1c(C(=O)OC)[nH]c(=S)[nH]c1=O
inactive: NCI-H460 > 50 µM | RXF 393 > 50 µM | SN12C > 50 µM | K562 > 50 µM | SK-MEL-5 > 50 µM | UACC-257 > 50 µM | ACHN > 50 µM | U-251 > 50 µM | Malme-3M > 50 µM | HL-60 > 50 µM | A498 > 50 µM | NCI-H23 > 50 µM | UACC-62 > 50 µM | OVCAR-4 > 50 µM | EKVX > 50 µM | SNB-19 > 50 µM | SK-MEL-28 > 50 µM

CN(C)CCC(CCN(C)C)=NO
inactive: NCI-H460 > 100 µM | RXF 393 > 100 µM | SN12C > 100 µM | K562 > 100 µM | SK-MEL-5 > 100 µM | UACC-257 > 100 µM | ACHN > 100 µM | U-251 > 100 µM | Malme-3M > 100 µM | HL-60 > 100 µM | A498 > 100 µM | NCI-H23 > 100 µM | UACC-62 > 100 µM | OVCAR-4 > 100 µM | EKVX > 100 µM | SNB-19 > 100 µM | SK-MEL-28 > 100 µM

c1ccc(CSC(SCc2ccccc2)c2ccc3c(c2)OCO3)cc1
inactive: MDA-MB-231 > 10 µM | NCI-H460 > 10 µM | RXF 393 > 10 µM | SN12C > 10 µM | K562 > 10 µM | SK-MEL-5 > 10 µM | UACC-257 > 10 µM | ACHN > 10 µM | U-251 > 10 µM | Malme-3M > 10 µM | HL-60 > 10 µM | A498 > 10 µM | NCI-H23 > 10 µM | UACC-62 > 10 µM | OVCAR-4 > 10 µM | EKVX > 10 µM | SNB-19 > 10 µM | SK-MEL-28 > 10 µM | MCF7 > 10 µM

COc1cc(CNC(=O)[C@H](Cc2ccc(O)cn2)NC(C)=O)cc(OC)c1
inactive: NCI-H460 > 100 µM | MDA-MB-435 > 100 µM | RXF 393 > 100 µM | SN12C > 100 µM | K562 83 µM | SK-MEL-5 67 µM | UACC-257 65.6 µM | ACHN > 100 µM | U-251 > 100 µM | Malme-3M > 100 µM | HL-60 19.5 µM | A498 > 100 µM | NCI-H23 > 100 µM | UACC-62 80.9 µM | OVCAR-4 > 100 µM | EKVX 60 µM | SNB-19 > 100 µM | SK-MEL-28 > 100 µM | MCF7 > 100 µM

O=S(O)CCCCSSCc1ccccc1CSSCCCCS(=O)O
inactive: NCI-H460 51.9 µM | RXF 393 7.94 µM | SN12C 26 µM | K562 16.6 µM | SK-MEL-5 8.79 µM | UACC-257 3.87 µM | ACHN 18.7 µM | U-251 46.7 µM | Malme-3M 8.91 µM | HL-60 5.69 µM | A498 40.7 µM | NCI-H23 18 µM | UACC-62 10.5 µM | OVCAR-4 4.21 µM | EKVX 22.2 µM | SNB-19 56.2 µM | SK-MEL-28 13.1 µM

O=C1C2C3C=CC(C2C(=O)N1COP(=O)(O)O)C1C2C(=O)N(COP(=O)(O)O)C(=O)C2C31 (stereo unspecified)
inactive: NCI-H460 > 41.9 µM | RXF 393 > 100 µM | SN12C > 74.3 µM | K562 > 67 µM | SK-MEL-5 > 100 µM | UACC-257 > 100 µM | ACHN > 91.2 µM | U-251 > 70.5 µM | Malme-3M > 100 µM | HL-60 15.5 µM | A498 > 100 µM | NCI-H23 > 100 µM | UACC-62 > 100 µM | OVCAR-4 > 100 µM | EKVX > 100 µM | SNB-19 > 100 µM | SK-MEL-28 > 100 µM

Cn1ccc2c(c1=O)C(=O)OC2(C)C [CERPEGIN]
inactive: MDA-MB-231 > 100 µM | NCI-H460 > 100 µM | RXF 393 > 100 µM | SN12C > 100 µM | K562 > 100 µM | SK-MEL-5 > 100 µM | UACC-257 > 100 µM | ACHN > 100 µM | U-251 > 100 µM | Malme-3M 65.6 µM | HL-60 > 100 µM | A498 > 100 µM | NCI-H23 > 100 µM | UACC-62 > 100 µM | OVCAR-4 > 100 µM | EKVX > 100 µM | SNB-19 25.5 µM | SK-MEL-28 > 100 µM | MCF7 > 100 µM

Source: ChEMBL document CHEMBL1201862, “PubChem BioAssay data set” (2004)
